In article PMC6627609, “Targeting Quorum Sensing: High-Throughput Screening to Identify Novel LsrK Inhibitors” (International Journal of Molecular Sciences, 2019):
Where a name gives a salt, the structure may show the parent alone.

Target: LsrK (Salmonella typhimurium, UniProt Q8ZKQ6)
Assay: biochemical
Type: biochemical, S. typhimurium
Settings: for Inhibition (%): 50 µM

LsrK, sequence (Q8ZKQ6 whole entry): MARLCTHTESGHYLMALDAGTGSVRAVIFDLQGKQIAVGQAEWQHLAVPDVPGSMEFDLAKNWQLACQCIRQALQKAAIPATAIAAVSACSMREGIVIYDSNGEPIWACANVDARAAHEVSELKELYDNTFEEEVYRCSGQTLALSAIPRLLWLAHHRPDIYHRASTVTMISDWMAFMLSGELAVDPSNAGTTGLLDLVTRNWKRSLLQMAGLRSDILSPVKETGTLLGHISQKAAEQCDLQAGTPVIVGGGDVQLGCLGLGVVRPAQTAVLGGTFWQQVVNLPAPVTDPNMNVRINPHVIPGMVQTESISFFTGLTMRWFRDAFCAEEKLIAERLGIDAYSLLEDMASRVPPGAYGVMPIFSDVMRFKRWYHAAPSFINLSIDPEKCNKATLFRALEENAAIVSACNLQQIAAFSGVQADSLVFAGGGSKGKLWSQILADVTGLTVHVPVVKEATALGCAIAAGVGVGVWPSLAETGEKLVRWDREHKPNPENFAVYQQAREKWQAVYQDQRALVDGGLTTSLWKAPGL

SMILES	inhibition at 50 µM [%]	Inhibition (%)
CCN(CC)CCCC(C)Nc1c2ccc(Cl)cc2nc2ccc(OC)cc12 (centres unmarked) [QUINACRINE HYDROCHLORIDE]	3	
COc1cc(O)c2c(=O)cc(C)oc2c1CC=C(C)C [HETEROPEUCENIN. METHYL ETHER]	1	
COc1c(O)cccc1O [2-METHOXYRESORCINOL]	0	
CC(C)(O)[C@@H]1[C@H]2OC(=O)[C@@H]1[C@]1(O)C[C@H]3O[C@]34C(=O)O[C@H]2[C@]14C [PICROTIN]	1	
C[C@H]1c2cccc(O)c2C(=O)C2=C(O)[C@]3(O)C(=O)C(C(N)=O)=C(O)[C@@H](N(C)C)[C@@H]3[C@@H](O)[C@@H]21 [DOXYCYCLINE HYDROCHLORIDE]	106	
CCCCC1=NC2(CCCC2)C(=O)N1Cc1ccc(-c2ccccc2-c2nnn[nH]2)cc1 [IRBESARTAN]	10	
Cc1ccc(C(=O)Nc2ccc(S(=O)(=O)O)c3cc(S(=O)(=O)O)cc(S(=O)(=O)O)c23)cc1NC(=O)c1cccc(NC(=O)Nc2cccc(C(=O)Nc3cc(C(=O)Nc4ccc(S(=O)(=O)O)c5cc(S(=O)(=O)O)cc(S(=O)(=O)O)c45)ccc3C)c2)c1 [SURAMIN]	110	
O=C1O[C@H](CO)[C@@H](O)[C@H](O)[C@H]1O [GLUCONOLACTONE]	0	
Nc1nc(N)c2nc(-c3ccccc3)c(N)nc2n1	0	
C=C1CC[C@H](O)C/C1=C/C=C1\CCC[C@]2(C)[C@@H]([C@H](C)CCCC(C)C)CC[C@@H]12 [CHOLECALCIFEROL]	90	
COc1ccc2[nH]c([S+]([O-])Cc3ncc(C)c(OC)c3C)nc2c1 (centres unmarked) [OMEPRAZOLE]	6	
O=C(O)C1=C[C@@H](O)[C@@H](O)[C@H](O)C1 [SHIKIMIC ACID]	1	
NC(N)=NC(=O)c1nc(Cl)c(N2CCCCCC2)nc1N [N.N-HEXAMETHYLENEAMILORIDE]		1
OC(CCN1CCCCC1)(c1ccccc1)C1CC2C=CC1C2 (centres unmarked) [BIPERIDEN]	1	
CCOC(=O)N1CCC(=C2c3ccc(Cl)cc3CCc3cccnc32)CC1 [LORATADINE]	2	
CCCCC(=O)N(Cc1ccc(-c2ccccc2-c2nnn[nH]2)cc1)[C@H](C(=O)O)C(C)C	1	
C#C[C@]1(O)CC[C@H]2[C@@H]3CCC4=CC(=O)CC[C@@H]4[C@H]3CC[C@@]21C [NORETHINDRONE]	0	
CC(C)(CO)[C@@H](O)C(=O)NCCC(=O)NCCSSCCNC(=O)CCNC(=O)[C@H](O)C(C)(C)CO [PANTETHINE]	0	
OCc1cccnc1 [NICOTINYL ALCOHOL TARTRATE]	1	
CN1CCCC(n2nc(Cc3ccc(Cl)cc3)c3ccccc3c2=O)CC1 (centres unmarked) [AZELASTINE HYDROCHLORIDE]	1	
NC(=O)C(c1ccccc1)(c1ccccc1)[C@@H]1CCN(CCc2ccc3c(c2)CCO3)C1 [DARIFENACIN HYDROBROMIDE]	2	
CCn1cc(C(=O)O)c(=O)c2cc(F)c(N3CCNCC3)nc21 [ENOXACIN]	0	
OCC(O)C(O)C(O)CO (centres unmarked) [ARABITOL(D)]		0
CC1(C)C(=O)C=C[C@]2(C)[C@H]3CC[C@@]4(C)[C@H](c5ccoc5)OC(=O)[C@H]5O[C@]54[C@]3(C)C(=O)C[C@@H]12 [DEACETOXY-7-OXOGEDUNIN]	2	
N[C@@H](Cc1ccc(O)c(O)c1)C(=O)O [LEVODOPA]	77	

SMILES	inhibition at 50 µM [%]	Inhibition (%)
CCN(CC)CCNc1ccc(CO)c2sc3ccccc3c(=O)c12 [HYCANTHONE]	1	
C[C@]12CCC(=O)C=C1C=C[C@@H]1[C@@H]2CC[C@@]2(C)[C@H]1CC[C@@]21CCC(=O)O1 [CANRENONE]	1	
CN1[C@@H]2CC[C@H]1C[C@@H](OC(=O)C(CO)c1ccccc1)C2 (some centres unmarked) [ATROPINE SULFATE]	3	
[N-]=[N+]=CC(=O)OC[C@H](N)C(=O)O [AZASERINE]	3	
COc1ccc(-c2coc3cc(O)cc(O)c3c2=O)cc1 [BIOCHANIN A]		25
CC[C@H](C=C[C@@H](C)[C@H]1CC[C@H]2[C@@H]3CCC4=CC(=O)CC[C@]4(C)[C@H]3CC[C@]12C)C(C)C		1
COc1cc(OC)c2c(=O)cc(-c3ccccc3)oc2c1 [CHRYSIN DIMETHYL ETHER]	1	
C1CCN2C[C@@H]3C[C@@H](CN4CCCC[C@@H]34)[C@H]2C1.I [SPARTEINE HYDROIODIDE]		1
COC(=O)[C@H]1[C@H]2C[C@@H]3c4[nH]c5cc(OC)ccc5c4CCN3C[C@H]2C[C@@H](OC(=O)c2cc(OC)c(OC)c(OC)c2)[C@@H]1OC [RESERPINE]	1	
O=C(O)c1cc(=O)[nH]c(=O)[nH]1 [OROTIC ACID]	1	
Nc1nc(/C(=C/CC(=O)O)C(=O)N[C@@H]2C(=O)N3C(C(=O)O)=CCS[C@H]23)cs1 [CEFTIBUTEN]	105	
CC1=C(/C=C/C(C)=C/C=C/C(C)=C/C=C/C=C(C)/C=C/C=C(C)/C=C/C2=C(C)CCCC2(C)C)C(C)(C)CCC1 [beta-CAROTENE]	1	
O=C([O-])CN(CCN(CC(=O)[O-])CC(=O)O)CC(=O)[O-].[Na+].[Na+].[Na+] [TRISODIUM ETHYLENEDIAMINE TETRACETATE]		1
COc1cc2ccc(=O)oc2cc1O [SCOPOLETIN]	1	
CC[N+](CC)(CC)CCOc1cccc(OCC[N+](CC)(CC)CC)c1OCC[N+](CC)(CC)CC [GALLAMINE TRIETHIODIDE]	1	
O=C(O)CC[N+](=O)[O-] [BOVINOCIDIN (3-nitropropionic acid), 3-nitropropionic acid]	5	
Cc1ccc(S(=O)(=O)NCl)cc1 [TOSYL[…]]	3	
COc1ccc(/C=C/c2cc(O)cc(O)c2)cc1 [RESVERATROL 4'-METHYL ETHER]	2	
CC1(C)C(C=C(Cl)Cl)C1C(=O)OC(C#N)c1cccc(Oc2ccccc2)c1 (centres unmarked) [CYPERMETHRIN]	3	
CCCCCCCCNC(C)C(O)c1ccc(SC(C)C)cc1 (centres unmarked) [SULOCTIDIL]	0	
COc1ccc([C@@H](C)C(=O)c2ccc(O)cc2O)cc1 [ANGOLENSIN (R)]	1	
C/C(=C(\CCOP(=O)(O)O)SC(=O)c1ccccc1)N(C=O)Cc1cnc(C)nc1N [BENFOTIAMINE]	0	
CC(=O)NS(=O)(=O)c1ccc(N)cc1 [SULFACETAMIDE]	0	
Cc1noc(NS(=O)(=O)c2ccc(N)cc2)c1C [SULFISOXAZOLE]	1	
CC(NCCC(c1ccccc1)c1ccccc1)c1ccccc1 (centres unmarked) [FENDILINE HYDROCHLORIDE]	0	

SMILES	inhibition at 50 µM [%]	Inhibition (%)
C=C[C@H]1CN2CC[C@H]1C[C@H]2[C@H](OC(=O)OCC)c1ccnc2ccc(OC)cc12 [QUININE ETHYL CARBONATE]	3	
COC(=O)Nc1nc2ccc([S+]([O-])c3ccccc3)cc2[nH]1 (centres unmarked) [OXFENDAZOLE]	27	
C[C@H]1O[C@H](OC2[C@@H](O)[C@@H](O)C(O)[C@H](O)[C@H]2O)[C@@H](N)C[C@@H]1N=C(N)C(=O)O.Cl (some centres unmarked) [KASUGAMYCIN HYDROCHLORIDE]		1
CN1[C@@H](CC(=O)c2ccccc2)CCC[C@H]1C[C@H](O)c1ccccc1 [LOBELINE HYDROCHLORIDE]	1	
CC(=O)O[C@H]1CC[C@]2(C)C3=C(CC[C@H]2C1(C)C)[C@]1(C)CC[C@H]([C@H](C)CCC=C(C)C)[C@@]1(C)CC3 [LANOSTEROL ACETATE]		1
CC(C)c1cc2c(c(O)c1O)[C@@]1(C(=O)O)CCCC(C)(C)[C@@H]1CC2 [CARNOSIC ACID]	2	
Nc1ncn([C@@H]2O[C@H](CO)[C@@H](O)[C@H]2O)c(=O)n1 [AZACITIDINE]	9	
CC(C)CC(NC(=O)[C@H](C)N)C(=O)O (mixture of isomers) [ALANYL-dl-LEUCINE]	2	
C[C@]12CC[C@H]3C(=CCc4cc(O)ccc43)[C@@H]1CCC2=O [EQUILIN]	1	
CC(=O)OCC1=C(C(=O)O)N2C(=O)[C@@H](NC(=O)Cc3cccs3)[C@H]2SC1 [CEPHALOTHIN SODIUM]	1	
CC(C)[C@H]1CC[C@H](C(=O)N[C@H](Cc2ccccc2)C(=O)O)CC1 [NATEGLINIDE]	1	
CC(=O)OCC(=O)[C@@]1(O)[C@H](C)C[C@H]2[C@@H]3CCC4=CC(=O)C=C[C@]4(C)[C@@]3(F)[C@@H](O)C[C@@]21C [DEXAMETHASONE ACETATE]	0	
O=c1c(-c2cc(O)c(O)c(O)c2)coc2cc(O)c(O)c(O)c12 [IRIGENOL]	90	
C[C@H]1C[C@H]2[C@@H]3CCC4=CC(=O)C=C[C@]4(C)[C@@]3(F)[C@@H](O)C[C@]2(C)[C@@]1(O)C(=O)CO [BETAMETHASONE]	1	
COC(=O)c1c(C)cc(O)cc1O [METHYL ORSELLINATE]	0	
C[N+](C)(C)CCOC(N)=O [CARBACHOL]	1	
CC(=O)O[C@@H]1CC2C(C)(C)[C@H](O)CC[C@]2(C)C2CC[C@@]3(C)[C@H](c4ccoc4)OC(=O)C4OC43[C@@]21C (stereo partly drawn) [alpha-DIHYDROGEDUNOL]		1
CC1=CC2C(CC1=O)C(C)=CCC2C(C)C (centres unmarked) [MUUROLLADIE-3-ONE]	1	
NCCc1c[nH]cn1 [HISTAMINE DIHYDROCHLORIDE]	3	
COc1cc(-c2ccc(/N=N/c3ccc4c(S(=O)(=O)O)cc(S(=O)(=O)O)c(N)c4c3O)c(OC)c2)ccc1/N=N/c1ccc2c(S(=O)(=O)O)cc(S(=O)(=O)O)c(N)c2c1O [CHICAGO SKY BLUE]	41	
c1cncc(C2=NCCC2)c1 [MYOSMINE]	2	
COc1ccc([C@@H]2CC(=O)c3c(O)cc(O[C@@H]4O[C@H](CO[C@@H]5O[C@@H](C)[C@H](O)[C@@H](O)[C@H]5O)[C@@H](O)[C@H](O)[C@H]4O)cc3O2)cc1O [HESPERIDIN]		1
OCCN(CCO)c1nc(N2CCCCC2)c2nc(N(CCO)CCO)nc(N3CCCCC3)c2n1 [DIPYRIDAMOLE]	2	
CCn1cc(C(=O)O)c(=O)c2cc(F)c(N3CCN(C)CC3)cc21.CS(=O)(=O)O [PEFLOXACINE MESYLATE]		2
